Results published in BindingDB's records for doi:10.1016/0960-894X(96)00174-6 (n/a, 1996).

Target: T1, 5-hydroxytryptamine receptor 2C (Homo sapiens, UniProt P28335)
T1 sequence (P28335 whole entry): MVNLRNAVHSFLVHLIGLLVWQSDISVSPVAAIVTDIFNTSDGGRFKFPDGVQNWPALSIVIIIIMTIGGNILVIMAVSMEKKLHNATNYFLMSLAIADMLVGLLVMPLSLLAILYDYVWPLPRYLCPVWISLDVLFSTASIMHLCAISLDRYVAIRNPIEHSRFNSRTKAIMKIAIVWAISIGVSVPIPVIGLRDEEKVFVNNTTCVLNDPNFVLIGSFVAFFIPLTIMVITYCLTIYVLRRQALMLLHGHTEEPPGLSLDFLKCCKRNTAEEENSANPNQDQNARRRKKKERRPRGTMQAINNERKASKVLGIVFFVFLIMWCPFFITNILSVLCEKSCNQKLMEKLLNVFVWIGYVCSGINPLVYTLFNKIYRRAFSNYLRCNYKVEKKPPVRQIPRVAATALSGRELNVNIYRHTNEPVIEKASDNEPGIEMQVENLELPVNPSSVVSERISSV
Assay: ChEBML_3050
Excerpt: Binding affinity towards 5-hydroxytryptamine 2C receptor by displacement of [3H]N-methyl-mesulergine

Structure (SMILES)	IC50
CCCN(CCC)CC1(N(CCC)CCC)COc2cccc(OC)c2C1 (stereo not drawn)	30.2 µM
CCCN1CCN(Cc2ccccc2)CC12COc1cccc(OC)c1C2 (stereo not drawn)	38.9 µM
CCCN1CCN(CCC)C2(COc3cccc(OC)c3C2)C1 (stereo not drawn)	468 µM

The next lines start with the values.

IC50	Structure (SMILES)
30.9 µM	CCCN1CCN(CCCCN2C(=O)CC3(CCCC3)CC2=O)CC12COc1cccc(OC)c1C2 (stereo not drawn)
0.169 µM	COc1cccc2c1CC(CNCCCCN1C(=O)CC3(CCCC3)CC1=O)CO2 (stereo not drawn)
1.23 µM	O=C1CC2(CCCC2)CC(=O)N1CCCCNCC1COc2ccccc2C1 (stereo not drawn)
10.5 µM	COc1cccc2c1CC1(CCCN1CCCCN1C(=O)CC3(CCCC3)CC1=O)CO2 (racemic) [(+/-) 8-{4-[5-methoxyspiro[3,4-dihydro-2H-chromene-3,2'-(tetrahydro-1'H-pyrrole)]-1-yl]butyl}-8-azaspiro[4.5]decane-7,9-dione]
3.16 µM	CCCN(CCCCN1C(=O)CC2(CCCC2)CC1=O)CC1COc2cccc(OC)c2C1 (stereo not drawn)
